One compound from ChEMBL document CHEMBL4480381, “Origin and bioactivities of thiosulfinated FK228” (Medchemcomm, 2019) can be followed below.

The target in this assay is Histone deacetylase 4 (Homo sapiens, UniProt P56524). The assay can be described thus: Inhibition of human recombinant C-terminal GST-tagged HDAC4 (101 to 1084 residues) expressed in baculovirus infected Sf9 insect cells after 1 hr by HDAC-Glo1/2 luminescent assay.
Chain of Histone deacetylase 4 (P56524 whole entry, the tested form may be a part): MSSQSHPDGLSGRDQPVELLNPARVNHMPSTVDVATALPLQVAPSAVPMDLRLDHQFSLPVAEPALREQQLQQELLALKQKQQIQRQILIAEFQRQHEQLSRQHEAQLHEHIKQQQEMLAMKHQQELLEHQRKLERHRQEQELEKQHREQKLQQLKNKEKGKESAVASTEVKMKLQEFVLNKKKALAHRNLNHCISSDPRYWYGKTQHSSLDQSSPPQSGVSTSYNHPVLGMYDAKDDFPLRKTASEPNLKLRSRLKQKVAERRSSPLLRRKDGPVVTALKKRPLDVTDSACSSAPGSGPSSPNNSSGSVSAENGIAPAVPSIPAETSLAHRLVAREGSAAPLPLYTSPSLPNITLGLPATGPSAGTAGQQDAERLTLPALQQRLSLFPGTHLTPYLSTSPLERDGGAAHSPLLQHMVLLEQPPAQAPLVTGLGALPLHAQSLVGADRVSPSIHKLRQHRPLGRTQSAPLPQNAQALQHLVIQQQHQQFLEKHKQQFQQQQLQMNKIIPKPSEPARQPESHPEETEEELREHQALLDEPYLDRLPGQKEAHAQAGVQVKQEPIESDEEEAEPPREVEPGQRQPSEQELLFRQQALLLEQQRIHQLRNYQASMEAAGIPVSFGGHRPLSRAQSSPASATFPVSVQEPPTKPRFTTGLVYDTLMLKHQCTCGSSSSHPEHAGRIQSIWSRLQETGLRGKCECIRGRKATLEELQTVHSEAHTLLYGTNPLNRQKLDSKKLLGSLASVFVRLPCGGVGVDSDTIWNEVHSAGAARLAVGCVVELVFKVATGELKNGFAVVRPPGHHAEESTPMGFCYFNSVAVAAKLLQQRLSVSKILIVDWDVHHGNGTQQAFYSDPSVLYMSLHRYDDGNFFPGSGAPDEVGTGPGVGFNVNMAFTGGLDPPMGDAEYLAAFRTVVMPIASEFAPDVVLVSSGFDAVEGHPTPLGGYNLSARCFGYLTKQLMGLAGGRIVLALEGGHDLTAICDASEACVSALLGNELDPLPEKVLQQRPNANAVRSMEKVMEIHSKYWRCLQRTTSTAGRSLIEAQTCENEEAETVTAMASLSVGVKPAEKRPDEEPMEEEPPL

The IC50 is the concentration at which inhibition is half-maximal. Consider `C/C=C1\NC(=O)[C@H]2CSSCC/C=C/[C@H](CC(=O)N[C@H](C(C)C)C(=O)N2)OC(=O)[C@H](C(C)C)NC1=O` [ROMIDEPSIN], for which the IC50 was 4.46 µM.
